Several values for one entry are separate records, joined by “and”; a condition that tells them apart may be missing. Equal entries are not always repeated.
Tested on: APP/PS1 mice
Assay: lipid mediator-SPM profile of microglia isolated from treated mice (LC-MS/MS, Supplementary Table 2, Fig 4e-g)
Format: in vivo, mouse
Parameters: 15R-LXA4 level in microglia (sFig 4g) / RvE1 level in microglia (sFig 4g) / RvD1 level in microglia (sFig 4g): unit not given here
Procedure: Lipid mediators metabololipidomics were performed according to previously described procedures with minor modifications[4],[30]. To confirm the biosynthesis of lipid mediators by recombinant COX2 treated with N-AS or aspirin, 10 U of human recombinant COX2 (Cayman, 60122) was incubated in the presence of 500 μM aspirin (Sigma-Aldrich, A5376) or N-AS (Sigma-Aldrich, 01912) at 37 °C for 30 min. The enzyme was filtered with a Microcon column (Millipore) to remove unreacted aspirin or N-AS and was then resuspended in 0.1 M Tris-HCl (pH 8.0). Next, 500 μM phenol (Sigma-Aldrich) and 1 μM hematin-porcine (Sigma-Aldrich) were added immediately before incubation with 100 μM AA, EPA or DHA (Cayman) at 37 °C for 2 h, respectively. The mixtures were incubated with 30 U of human 5-LOX (Cayman, 60402) containing 2 mM CaCl2 (Sigma-Aldrich), 1 mM ATP (Amresco) and 5 μM 13-HpODE (Cayman) as activators. Also, to validate the importance of residue S565 for N-AS-acetylation of COX2 and production of SPMs, 10 U of the COX2 S565A mutant was used in the above-described method. In addition, to confirm SPM generation in neurons and microglia, these cells were treated with Aβ and sonicated in neuronal and glial culture medium. […] To evaluate the relationship of N-AS and SPM production in microglia, microglia were isolated from WT, APP/PS1, and APP/PS1 treated with N-AS mice at 9 months of age. The microglia were sonicated and resuspended in microglial culture medium. The supernatants were incubated with 100 μM AA, EPA, and DHA (Cayman) at 37 °C for 2 h. A 50 μl aliquot of the mixture from each cell lysate was added to a 250 μl aliquot of 1 ng ml^−1 of 15S-LXA4-d5 (internal standard, Cayman) methanol solution. After vortexing for 10 min and centrifuging at 15,974×g for 5 min, the supernatant was subjected to the analysis of the lipid mediators using an Agilent 6470 Triple Quad LC-MS/MS system (Agilent) coupled to an Agilent 1290 HPLC system. Chromatographic separation was achieved using a Synergi Polar RP (4 μm, 2.0 mm i.d. × 150 mm, Phenomenex). Analytes were eluted with a mobile phase consisting of water: formic acid (100:0.1 v/v) (phase A) and methanol: formic acid (100:0.1 v/v) (phase B) in gradient elution mode for 23 min a flow rate of 0.2 ml min^−1. The elution gradient was as follows: from 0 to 0.1 min the content of phase A was 37% and the content of phase A was decreased to 10% and maintained for 5.5 min. The content of phase A was increased back to 37% at 6.0 min and maintained for 23 min. Quantification was carried out using MRM in negative ionization mode and collision energy of 10–15 eV. The mass transition from Q1 to Q3 is shown in Supplementary Table 2. In this study, the peak areas for all components were automatically integrated using MassHunter B 06.00.
Adult neurons and microglia were isolated from the mice brain as previously described. In brief, the cortex of WT (1, 3, 5, or 9-months-old), APP/PS1 (1, 3, 5, or 9-months-old), APP/PS1 treated with N-AS (9-months-old) or APP/PS1 treated with aspirin (9-months-old) mice were minced in Hibernate A (Gibco)/B27 (Invitrogen) medium and dissociated using papain (Worthington) solution. After tissue trituration, cells were separated by Optiprep (Sigma-Aldrich) density gradient centrifugation. The purity of the fractionated neurons and microglia were acutely confirmed by neuronal (NeuN, mouse, 1:200, Millipore, MAB377) and microglial (Iba1, rabbit, 1:1000, Wako, 019-19941) markers and the isolated neurons and microglia were acutely analyzed for the acetylation assay and lipid mediators metabololipidomics.
Transgenic mouse lines over-expressing the hAPP695swe (APP) and presenilin-1M146V (PS1) mutations were originated from GlaxoSmithKline (Harlow, UK)[32] and maintained as described previously. We purchased 5×FAD mice from Jackson Labs (Stock number. 34840-JAX). Because APP/PS1 and 5xFAD mice show sex differences in disease progression, we used only male mice. […]

[1] = APP/PS1 + N-AS, individual samples

CCCCCCCCCCCCC/C=C/[C@@H](O)[C@H](CO)NC(C)=O [N-AS, N-((2S,3R,E)-1,3-Dihydroxyoctadec-4-en-2-yl)acetamide]
15R-LXA4 level in microglia (sFig 4g) [1]: 4570 and 5879.36 and 4407.58 and 3923.74 and 3772.92 and 3755.88 and 4463.12 and 4253.3
RvD1 level in microglia (sFig 4g) [1]: 122.239 and 113.373 and 105 and 174.655 and 77.0631 and 102.088 and 125.141 and 80.0045
RvE1 level in microglia (sFig 4g) [1]: 121.276 and 201.615 and 123.367 and 132.221 and 152.593 and 109.936 and 221.33
11-HEPE in mouse microglia (APP/PS1/N-AS, mean±s.e.m., n=6): 8016.0±190.1 pg/1*106cell
11-HETE in mouse microglia (APP/PS1/N-AS, mean±s.e.m., n=6): 8870.6±557.1 pg/1*106cell
13-HDHA in mouse microglia (APP/PS1/N-AS, mean±s.e.m., n=6): 6824.5±237.7 pg/1*106cell
15-HEPE in mouse microglia (APP/PS1/N-AS, mean±s.e.m., n=6): 5286.6±214.8 pg/1*106cell
15-HETE in mouse microglia (APP/PS1/N-AS, mean±s.e.m., n=6): 33117.1±1929.6 pg/1*106cell
15R-LXA4 in mouse microglia (APP/PS1/N-AS, mean±s.e.m., n=6): 4378.2±241.8 pg/1*106cell
17-HDHA in mouse microglia (APP/PS1/N-AS, mean±s.e.m., n=6): 86224.5±10404.3 pg/1*106cell
18-HEPE in mouse microglia (APP/PS1/N-AS, mean±s.e.m., n=6): 31965.9±2934.1 pg/1*106cell
AA in mouse microglia (APP/PS1/N-AS, mean±s.e.m., n=6): 39563.5±824.8 pg/1*106cell
DHA in mouse microglia (APP/PS1/N-AS, mean±s.e.m., n=6): 37384.7±1351.7 pg/1*106cell
EPA in mouse microglia (APP/PS1/N-AS, mean±s.e.m., n=6): 406.6±21.1 pg/1*106cell
LTB4 in mouse microglia (APP/PS1/N-AS, mean±s.e.m., n=6): 876.5±71.9 pg/1*106cell
PGE3/PGD3 in mouse microglia (APP/PS1/N-AS, mean±s.e.m., n=6): 2590.3±243.8 pg/1*106cell
PGH2/PGE2 in mouse microglia (APP/PS1/N-AS, mean±s.e.m., n=6): 3862.0±266.4 pg/1*106cell
RvD1 in mouse microglia (APP/PS1/N-AS, mean±s.e.m., n=6): 112.4±10.9 pg/1*106cell
RvE1 in mouse microglia (APP/PS1/N-AS, mean±s.e.m., n=6): 151.8±16.3 pg/1*106cell
TxB3 in mouse microglia (APP/PS1/N-AS, mean±s.e.m., n=6): 1209.9±70.0 pg/1*106cell
